Laboratory results: US20150353530A1 (CORTENDO AB (PUBL), priority 2013, published 2015)

How the values were obtained:
Assay type in all cases: cell-based
[1] = biological target: T1, recombinant CYP-11 (Homo sapiens, UniProt P15538); assay: Cyp11 assay: AD293 cells over-expressing recombinant CYP-11, cortisol formation from 11-deoxycortisol by LC/MS; conditions: eight concentrations 10 μM to 4.5 nM
T1 construct: expressed in transfected cells
T1 sequence (P15538 25-503): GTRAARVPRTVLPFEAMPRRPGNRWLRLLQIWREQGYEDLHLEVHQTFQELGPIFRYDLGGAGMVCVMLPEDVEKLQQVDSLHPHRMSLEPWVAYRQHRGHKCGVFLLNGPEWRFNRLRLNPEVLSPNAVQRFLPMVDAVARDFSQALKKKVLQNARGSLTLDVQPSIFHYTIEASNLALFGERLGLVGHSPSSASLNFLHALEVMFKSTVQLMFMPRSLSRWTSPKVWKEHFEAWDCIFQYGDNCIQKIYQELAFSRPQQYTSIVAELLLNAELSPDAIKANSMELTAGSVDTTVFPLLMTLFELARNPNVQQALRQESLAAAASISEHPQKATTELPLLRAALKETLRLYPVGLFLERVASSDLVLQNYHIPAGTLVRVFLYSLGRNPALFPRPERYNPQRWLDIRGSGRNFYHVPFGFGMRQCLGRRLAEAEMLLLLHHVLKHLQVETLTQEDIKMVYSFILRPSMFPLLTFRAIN
Procedure: (§1) AD293 cells that stably over-express recombinant CYP-11 were seeded in 96 well plates coated with poly D-lysine (15,000 cell per well) and incubated at 37° C. for 24 hours in Dulbecco's Modified Eagle Medium (DMEM) with Fetal Bovine Serum (FBS) that is stripped of hormones by charcoal treatment. The media is then removed, the cells are washed once with Phosphate buffer saline solution, and 50 μL Dulbecco's Modified Eagle Medium (DMEM) with Fetal Bovine Serum (FBS) that is stripped of hormones by charcoal treatment is added. Compounds of the disclosure are then added to the wells in eight concentration spanning 10 μM to 4.5 nM, and the plates are incubated for an additional 60 minutes at 37° C. 11-deoxycortisol is then added (2.0 μM) and the plates are incubated for an additional 12 hours at 37° C. After incubation, 50 uL of the supernatant (medium) is transferred into a fresh plate and 150 uL of an acetonitrile solution containing 200 ng/ml of Telmisartan is added. The sample is mixed and then placed in a centrifuge at 2000 rpm for 5 minutes.

[2] = biological target: T2, recombinant CYP-17 (Homo sapiens, UniProt P05093); assay: Cyp17 assay: AD293 cells over-expressing recombinant CYP-17, 3H-acetic acid release from [21-3H] 17α-hydroxyl-Pregnenolone; conditions: for IC50: AD293 cells, eight concentrations 10 μM to 4.5 nM
T2 construct: expressed in transfected cells
T2 sequence (P05093 1-508): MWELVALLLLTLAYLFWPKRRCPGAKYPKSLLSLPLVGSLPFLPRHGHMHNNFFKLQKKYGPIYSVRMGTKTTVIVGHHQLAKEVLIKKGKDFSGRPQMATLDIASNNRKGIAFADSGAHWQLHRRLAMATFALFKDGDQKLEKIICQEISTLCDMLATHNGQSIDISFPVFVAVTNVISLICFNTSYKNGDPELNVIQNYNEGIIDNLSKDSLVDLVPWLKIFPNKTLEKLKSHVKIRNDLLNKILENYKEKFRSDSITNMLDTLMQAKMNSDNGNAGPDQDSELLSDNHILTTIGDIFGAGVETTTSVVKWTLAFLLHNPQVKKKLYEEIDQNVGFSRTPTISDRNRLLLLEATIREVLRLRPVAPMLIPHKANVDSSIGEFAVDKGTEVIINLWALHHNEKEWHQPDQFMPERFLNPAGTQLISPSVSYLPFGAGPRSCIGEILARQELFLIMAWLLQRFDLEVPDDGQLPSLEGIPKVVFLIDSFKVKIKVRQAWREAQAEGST
Procedure: Cyp17 assay protocol: AD293 cells that stably over-express recombinant CYP-17 were seeded in 96 well plates coated with poly D-lysine (15,000 cell per well) and incubated at 37° C. for 24 hours in Dulbecco's Modified Eagle Medium (DMEM) with Fetal Bovine Serum (FBS) that is stripped of hormones by charcoal treatment. The media is then removed, the cells are washed once with Phosphate buffer saline solution, and 50 μL Dulbecco's Modified Eagle Medium (DMEM) with Fetal Bovine Serum (FBS) that is stripped of hormones by charcoal treatment is added. Compounds of the disclosure are then added to the wells in eight concentration spanning 10 μM to 4.5 nM, and the plates are incubated for an additional 60 minutes at 37° C. [21-^3H] […] The media is then collected, 200 μL of chloroform is added, and the mixture is shaken for 1 hour. The aqueous layer is then separated and analyzed for the presence of ^3H-acetic acid using a Perkin Elmer Topcount NXT to determine IC50s of the compounds of the disclosure.

[3] = biological target: T3, recombinant CYP-21 (Homo sapiens, UniProt P08686); assay: Cyp21 assay: AD293 cells over-expressing recombinant CYP-21, 11-deoxycortisol formation from 17α-OH Progesterone by LC/MS; conditions: eight concentrations 10 μM to 4.5 nM
T3 construct: expressed in transfected cells
T3 sequence (P08686 1-495): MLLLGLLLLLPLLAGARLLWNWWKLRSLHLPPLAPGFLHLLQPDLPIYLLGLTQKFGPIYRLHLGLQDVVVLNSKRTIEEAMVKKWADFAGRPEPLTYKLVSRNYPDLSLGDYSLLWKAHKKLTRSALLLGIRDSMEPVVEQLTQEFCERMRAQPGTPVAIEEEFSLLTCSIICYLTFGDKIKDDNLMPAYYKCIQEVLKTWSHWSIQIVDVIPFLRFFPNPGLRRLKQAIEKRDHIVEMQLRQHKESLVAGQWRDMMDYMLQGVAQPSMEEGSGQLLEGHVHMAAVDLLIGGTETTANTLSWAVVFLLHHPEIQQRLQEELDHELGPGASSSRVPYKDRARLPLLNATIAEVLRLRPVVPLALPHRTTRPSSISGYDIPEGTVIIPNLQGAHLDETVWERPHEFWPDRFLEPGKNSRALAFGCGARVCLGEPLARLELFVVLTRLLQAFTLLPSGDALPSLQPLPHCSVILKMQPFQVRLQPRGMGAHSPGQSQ
Procedure: as §1, with “Cyp21 assay protocol: AD293” for “AD293”, “CYP-21” for “CYP-11”, “(10,000” for “(15,000”, “17α-OH Progesterone” for “11-deoxycortisol”, “(1.0” for “(2.0”, “45 minutes” for “12 hours”

O=S(=O)(CC(F)(F)F)N1CCN(c2ccc(OC[C@@H]3CO[C@@](Cn4ccnc4)(c4ccc(Cl)cc4Cl)O3)cc2)CC1 [Entry 20]
IC50 [1]: 70 nM | IC50 [2]: 610 nM | IC50 [3]: 78 nM

COC(=O)[C@@H](NC(=O)N1CCN(c2ccc(OC[C@H]3CO[C@](Cn4ccnc4)(c4ccc(Cl)cc4Cl)O3)cc2)CC1)C(C)C [Entry 18]
IC50 [1]: 110 nM | IC50 [2]: 137 nM | IC50 [3]: 720 nM

CC(C)CS(=O)(=O)N1CCN(c2ccc(OC[C@@H]3CO[C@@](Cn4ccnc4)(c4ccc(Cl)cc4Cl)O3)cc2)CC1 [Entry 23]
IC50 [1]: 388 nM | IC50 [2]: 45 nM | IC50 [3]: 249 nM

Clc1ccc([C@]2(Cn3ccnc3)OC[C@@H](COc3ccc(N4CCN(C5=NCCO5)CC4)cc3)O2)c(Cl)c1 (racemic) [Entry 34]
IC50 [1]: 148 nM | IC50 [2]: 30 nM | IC50 [3]: 423 nM

COC(=O)[C@H](Cc1ccccc1)NC(=O)N1CCN(c2ccc(OC[C@@H]3CO[C@@](Cn4ccnc4)(c4ccc(Cl)cc4Cl)O3)cc2)CC1 [Entry 17]
IC50 [1]: 100 nM | IC50 [2]: 43 nM | IC50 [3]: 360 nM

COCCOC(=O)N1CCN(c2ccc(OC[C@@H]3CO[C@@](Cn4ccnc4)(c4ccc(Cl)cc4Cl)O3)cc2)CC1 (racemic) [Entry 2]
IC50 [1]: 100 nM | IC50 [2]: 100 nM | IC50 [3]: 230 nM

CCOC(=O)CNC(=O)N1CCN(c2ccc(OC[C@H]3CO[C@](Cn4ccnc4)(c4ccc(Cl)cc4Cl)O3)cc2)CC1 [Entry 15]
IC50 [1]: 530 nM | IC50 [2]: 310 nM | IC50 [3]: 2460 nM

O=S(=O)(CCC(F)(F)F)N1CCN(c2ccc(OC[C@@H]3CO[C@@](Cn4ccnc4)(c4ccc(Cl)cc4Cl)O3)cc2)CC1 [Entry 27]
IC50 [1]: 10000 nM | IC50 [2]: 240 nM | IC50 [3]: 373 nM

COC(=O)N1CCN(c2ccc(OC[C@@H]3CO[C@@](Cn4ccnc4)(c4ccc(Cl)cc4Cl)O3)cc2)CC1 (racemic) [Entry 1]
IC50 [1]: 100 nM | inhibition at 0.1 µM ([2]; AD293, 4 h, read-out: Cyp17 % @ 0.1 μM (printed in the Cyp17 IC50 column)): 83% | IC50 [3]: 160 nM

CCCS(=O)(=O)N1CCN(c2ccc(OC[C@@H]3CO[C@@](Cn4ccnc4)(c4ccc(Cl)cc4Cl)O3)cc2)CC1 [Entry 22]
IC50 [1]: 91 nM | IC50 [2]: 8 nM | IC50 [3]: 128 nM

CCNC(=O)N1CCN(c2ccc(OC[C@H]3CO[C@](Cn4ccnc4)(c4ccc(Cl)cc4Cl)O3)cc2)CC1 [Entry 14]
IC50 [1]: 500 nM | IC50 [2]: 43 nM

COC(=O)[C@H](Cc1ccccc1)NC(=O)N1CCN(c2ccc(OC[C@H]3CO[C@](Cn4ccnc4)(c4ccc(Cl)cc4Cl)O3)cc2)CC1 [Entry 19]
IC50 [1]: 240 nM | IC50 [2]: 250 nM | IC50 [3]: 740 nM

CN(C)C(=O)N1CCN(c2ccc(OC[C@@H]3CO[C@@](Cn4ccnc4)(c4ccc(Cl)cc4Cl)O3)cc2)CC1 (racemic) [Entry 3]
IC50 [1]: 100 nM | IC50 [2]: 100 nM

O=S(=O)(CC(F)F)N1CCN(c2ccc(OC[C@@H]3CO[C@@](Cn4ccnc4)(c4ccc(Cl)cc4Cl)O3)cc2)CC1 [Entry 29]
IC50 [1]: 280 nM | IC50 [2]: 11 nM | IC50 [3]: 80 nM

CCNC(=O)N1CCN(c2ccc(OC[C@@H]3CO[C@@](Cn4ccnc4)(c4ccc(Cl)cc4Cl)O3)cc2)CC1 [Entry 12]
IC50 [1]: 52 nM | IC50 [2]: 35 nM | IC50 [3]: 690 nM

COC(=O)[C@@H](NC(=O)N1CCN(c2ccc(OC[C@@H]3CO[C@@](Cn4ccnc4)(c4ccc(Cl)cc4Cl)O3)cc2)CC1)C(C)C [Entry 16]
IC50 [1]: 100 nM | IC50 [2]: 10 nM | IC50 [3]: 244 nM

N=C(N)N1CCN(c2ccc(OC[C@@H]3CO[C@@](Cn4ccnc4)(c4ccc(Cl)cc4Cl)O3)cc2)CC1 [Entry 33]
IC50 [1]: 1900 nM | IC50 [2]: 340 nM | IC50 [3]: 10000 nM

CCOC(=O)CNC(=O)N1CCN(c2ccc(OC[C@@H]3CO[C@@](Cn4ccnc4)(c4ccc(Cl)cc4Cl)O3)cc2)CC1 [Entry 13]
IC50 [1]: 66 nM | IC50 [2]: 25 nM | IC50 [3]: 710 nM
